Data: PMC6718736, “Validation of in vitro methods for human cytochrome P450 enzyme induction: Outcome of a multi-laboratory study” (Toxicology in Vitro, 2019)
“Also recorded” adds a separate entry of the source. Where two headings read alike, the source gives them in different places.

How the values were obtained:
[1] = test system: CYP2B6; details: cited from earlier work
[2] = test system: CYP1A2; details: cited from earlier work
[3] = cited from earlier work
[4] = test system: CYP2B6; assay: CYP2B6 enzyme induction assay in cryopreserved primary human hepatocytes (PHH); type: in vitro ADME; details: for Assigned classification CYP2B6: PHH;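 for Assigned classification CYP2B6: code 1 means positive inducer and 0 means non-inducer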
[5] = test system: CYP; details: CYP isoforms induced; ref Abadie et al. (2009), Richert et al. (2010), Preissner et al. (2010), Hoffmann et al. (2014); cited from earlier work
[6] = test system: CYP1A2; assay: CYP1A2 enzyme induction assay in cryopreserved primary human hepatocytes (PHH); type: in vitro ADME; details: for Prediction in vivo inducer: Cmax/F2 >0.5 criterion; for Assigned classification CYP1A2: PHH;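 for Assigned classification CYP1A2: code 1 means positive inducer and 0 means non-inducer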
[7] = test system: CYP1A2; assay: CYP1A2 enzyme induction assay in cryopreserved HepaRG cells (phenacetin probe, LC/MS); type: in vitro ADME, human; details: for Assigned classification CYP1A2: HepaRG; for Assigned classification CYP1A2: key: 1=Positive=inducer; 0=Negative=non-inducer
[8] = test system: CYP2B6; assay: CYP2B6 enzyme induction assay in cryopreserved HepaRG cells (bupropion probe, LC/MS); type: in vitro ADME, human; details: for Prediction in vivo inducer: Cmax/F2 >0.5 criterion; for Assigned classification CYP2B6: HepaRG; for Assigned classification CYP2B6: key: 1=Positive=inducer; 0=Negative=non-inducer
[9] = test system: CYP3A4; assay: CYP3A4 enzyme induction assay in cryopreserved primary human hepatocytes (PHH); details: for Assigned classification CYP3A4: PHH
[10] = test system: CYP3A4; assay: CYP3A4 enzyme induction assay in cryopreserved HepaRG cells (midazolam probe, LC/MS); type: in vitro ADME, human; details: for Assigned classification CYP3A4: HepaRG; for Assigned classification CYP3A4: key: 1=Positive=inducer; 0=Negative=non-inducer
[11] = test system: CYP3A4; details: cited from earlier work
[12] = human in vivo, CYP named without remark = induced, ref references in the cell, Washington University database, Hoffmann et al. (2014), Pelkonen et al. (2008), Hukkanen et al. (2012)

For `NC(=O)N1c2ccccc2C=Cc2ccccc21` [Carbamazepine], the Induction in vivo ([1]; CYP2B6, human in vivo reference classification) is listed as “Yes”, the Induction in vivo ([1]; CYP2B6, human, ref Table 1) is listed as “Yes” and the “CYP induction in vivo literature reference: CYP2B6” value [1, 12] is listed as “CYP2B6”. The Induction in vivo ([2]; CYP1A2, human, ref Table 1) was “Yes”, the “CYP induction in vivo literature reference: CYP1A2” value [2, 12] was “CYP 1A2” and the Cmax ([3]; human in vivo plasma concentration, normal dose) was 39 µM. For the same compound, the Cmax ([3]; human in vivo, normal dose (Table 10)) was 39 µM, the F2 ([4]; CYP2B6, PHH) was 2.09 to 6.27 µM and the Induction in vitro ([4]; CYP2B6, PHH) was “Yes”. For the same compound, the “Prediction in vivo inducer” value ([4]; CYP2B6, PHH) was “Yes”, the “Prediction in vivo inducer” value ([4]; CYP2B6, PHH, Cmax/F2 >0.5 criterion) was “positive” and the “Assigned classification CYP2B6” value ([4]; Lab 1, batch 0 6 A) was 1. For the same compound, the “Assigned classification CYP2B6” value ([4]; Lab 1, batch 4 0 8) was 1, the “Assigned classification CYP2B6” value ([4]; Lab 1, batch 8 0 8) was 0 and the “Assigned classification CYP2B6” value ([4]; Lab 2, batch 0 6 A) was 1. The “Assigned classification CYP2B6” value ([4]; Lab 2, batch 4 0 8) was 1, the “Assigned classification CYP2B6” value ([4]; Lab 2, batch 8 0 8) was 0 and the “Assigned classification CYP2B6” value ([4]; Lab 3, batch 0 6 A) was 1. The “Assigned classification CYP2B6” value ([4]; Lab 3, batch 4 0 8) was 1, the “Assigned classification CYP2B6” value ([4]; Lab 3, batch 8 0 8) was 0 and the “CYP induction in vitro (human hepatocytes)” value [5] was “CYP1A2, CYP2B6, CYP3A4”. The “Prediction in vivo inducer” value ([6]; CYP1A2, PHH) was “No”, the “Prediction in vivo inducer” value ([6]; CYP1A2, PHH, listed as carbamazepine) was “non-inducer; also recorded: missed the in vivo prediction” and the Induction in vitro ([6]; CYP1A2, PHH, positive in one donor in each of the three laboratories) was “No”. For the same compound, the “Assigned classification CYP1A2” value ([6]; Lab 1, batch 0 6 A) was 0, the “Assigned classification CYP1A2” value ([6]; Lab 1, batch 4 0 8) was 1 and the “Assigned classification CYP1A2” value ([6]; Lab 1, batch 8 0 8) was 0. For the same compound, the “Assigned classification CYP1A2” value ([6]; Lab 2, batch 0 6 A) was 0, the “Assigned classification CYP1A2” value ([6]; Lab 2, batch 4 0 8) was 0 and the “Assigned classification CYP1A2” value ([6]; Lab 2, batch 8 0 8) was 0. For the same compound, the “Assigned classification CYP1A2” value ([6]; Lab 3, batch 0 6 A) was 1, the “Assigned classification CYP1A2” value ([6]; Lab 3, batch 4 0 8) was 0 and the “Assigned classification CYP1A2” value ([6]; Lab 3, batch 8 0 8) was 0. The “Prediction in vivo inducer” value ([7]; CYP1A2, HepaRG cells, Cmax/F2 >0.5 criterion) was “Yes”, the F2 ([7]; CYP1A2, HepaRG cells, in vitro concentration producing 2-fold induction) was 56.4 µM and the Induction in vitro ([7]; CYP1A2, HepaRG cells, positive in one batch in each of the three laboratories) was “Yes”. For the same compound, the “Assigned classification CYP1A2” value ([7]; Lab 1, batch 20) was 1, the “Assigned classification CYP1A2” value ([7]; Lab 1, batch 35) was 1 and the “Assigned classification CYP1A2” value ([7]; Lab 1, batch 36) was 1. The “Assigned classification CYP1A2” value ([7]; Lab 2, batch 20) was 1, the “Assigned classification CYP1A2” value ([7]; Lab 2, batch 35) was 1 and the “Assigned classification CYP1A2” value ([7]; Lab 2, batch 36) was 1. For the same compound, the “Assigned classification CYP1A2” value ([7]; Lab 3, batch 20) was 0, the “Assigned classification CYP1A2” value ([7]; Lab 3, batch 35) was 1 and the “Assigned classification CYP1A2” value ([7]; Lab 3, batch 36) was 1. For the same compound, the “Prediction in vivo inducer” value ([8]; CYP2B6, HepaRG cells) was “Yes”, the “Prediction in vivo inducer” value ([8]; CYP2B6, HepaRG cells, listed as carbamazepine) was “correctly classified” and the F2 ([8]; CYP2B6, HepaRG cells, in vitro concentration producing 2-fold induction) was 18.8 µM. For the same compound, the Induction in vitro ([8]; CYP2B6, HepaRG cells, positive in one batch in each of the three laboratories) was “Yes”, the “Assigned classification CYP2B6” value ([8]; Lab 1, batch 20) was 1 and the “Assigned classification CYP2B6” value ([8]; Lab 1, batch 35) was 1. For the same compound, the “Assigned classification CYP2B6” value ([8]; Lab 1, batch 36) was 1, the “Assigned classification CYP2B6” value ([8]; Lab 2, batch 20) was 1 and the “Assigned classification CYP2B6” value ([8]; Lab 2, batch 35) was 1. For the same compound, the “Assigned classification CYP2B6” value ([8]; Lab 2, batch 36) was 1, the “Assigned classification CYP2B6” value ([8]; Lab 3, batch 20) was 1 and the “Assigned classification CYP2B6” value ([8]; Lab 3, batch 35) was 1. The “Assigned classification CYP2B6” value ([8]; Lab 3, batch 36) was 1, the Induction in vitro ([9]; CYP3A4, PHH) was “Yes” and the “Prediction in vivo inducer” value ([9]; CYP3A4, PHH) was “Yes”. The “Assigned classification CYP3A4” value ([9]; Lab 1, batch 0 6 A) was 1, the “Assigned classification CYP3A4” value ([9]; Lab 1, batch 4 0 8) was 1 and the “Assigned classification CYP3A4” value ([9]; Lab 1, batch 8 0 8) was 1. For the same compound, the “Assigned classification CYP3A4” value ([9]; Lab 2, batch 0 6 A) was 1, the “Assigned classification CYP3A4” value ([9]; Lab 2, batch 4 0 8) was 1 and the “Assigned classification CYP3A4” value ([9]; Lab 2, batch 8 0 8) was 1. For the same compound, the “Assigned classification CYP3A4” value ([9]; Lab 3, batch 0 6 A) was 1, the “Assigned classification CYP3A4” value ([9]; Lab 3, batch 4 0 8) was 1 and the “Assigned classification CYP3A4” value ([9]; Lab 3, batch 8 0 8) was 1. The F2 ([10]; CYP3A4, HepaRG cells) was 18.8 µM, the Induction in vitro ([10]; CYP3A4, HepaRG cells) was “Yes” and the “Prediction in vivo inducer” value ([10]; CYP3A4, HepaRG cells) was “Yes”. The “Assigned classification CYP3A4” value ([10]; Lab 1, batch 20) was 1, the “Assigned classification CYP3A4” value ([10]; Lab 1, batch 35) was 1 and the “Assigned classification CYP3A4” value ([10]; Lab 1, batch 36) was 0. For the same compound, the “Assigned classification CYP3A4” value ([10]; Lab 2, batch 20) was 1, the “Assigned classification CYP3A4” value ([10]; Lab 2, batch 35) was 1 and the “Assigned classification CYP3A4” value ([10]; Lab 2, batch 36) was 1. For the same compound, the “Assigned classification CYP3A4” value ([10]; Lab 3, batch 20) was 1, the “Assigned classification CYP3A4” value ([10]; Lab 3, batch 35) was 1 and the “Assigned classification CYP3A4” value ([10]; Lab 3, batch 36) was 1. The Induction in vivo ([11]; CYP3A4, human in vivo reference classification (Table 11)) was “Yes” and the “CYP induction in vivo literature reference: CYP3A4” value [11, 12] was “CYP 3A4”.
